Some results are limits rather than exact numbers.

The target of one experiment is human NK-3 receptor (Homo sapiens (Human), UniProt P29371). Nature of the experiment: 3H-SB222200 binding competition assay with human NK-3 receptor. The settings on record: 3H-SB222200 displacement, CHO cell membranes expressing human NK3 receptor; read-out: Ki range. A digest of the protocol: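 Radioligand displacement: 5 nM tritiated SB222200 competed by varying compound concentrations on recombinant CHO membranes bearing human NK3, buffer pH 7.4 with HEPES, NaCl, CaCl2, MgCl2, BSA and saponin. Filter-bound radioactivity quantified; calculated Ki given as ranges from +++ (<500 nM) to # (>5 μM).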
Sequence of human NK-3 receptor (P29371 whole entry): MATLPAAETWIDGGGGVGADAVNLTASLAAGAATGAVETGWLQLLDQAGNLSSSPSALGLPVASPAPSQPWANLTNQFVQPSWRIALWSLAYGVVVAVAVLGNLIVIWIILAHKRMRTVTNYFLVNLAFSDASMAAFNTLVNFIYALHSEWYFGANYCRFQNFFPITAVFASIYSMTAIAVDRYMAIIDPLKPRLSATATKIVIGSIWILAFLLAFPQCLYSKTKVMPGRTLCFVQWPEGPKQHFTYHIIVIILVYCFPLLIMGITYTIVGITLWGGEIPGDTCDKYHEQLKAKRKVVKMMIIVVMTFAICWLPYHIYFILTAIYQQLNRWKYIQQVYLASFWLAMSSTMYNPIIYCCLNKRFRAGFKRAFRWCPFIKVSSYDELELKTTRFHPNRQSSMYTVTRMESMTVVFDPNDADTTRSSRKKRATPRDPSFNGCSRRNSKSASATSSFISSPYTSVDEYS
What is called Ki is the equilibrium dissociation constant of an inhibitor or competing ligand from its target. In the case of `C[C@@H]1c2nnc(-c3csc(-c4ccc(F)cc4)n3)n2CCN1C(=O)c1ccc(F)cc1` [Compound 71, (R)-(4-fluorophenyl)(3-(2-(4-fluorophenyl)thiazol-4-yl)-8-methyl-5,6-dihydro-[1,2,4]triazolo[4,3-a]pyrazin-7(8H)-yl)methanone], the Ki was below 500 nM.

Turning to `O=C(c1ccc(F)cc1)N1CCn2c(nnc2-c2csc(N3CCC(F)(F)CC3)n2)C1` [Compound 258, (3-(2-(4,4-difluoropiperidin-1-yl)thiazol-4-yl)-5,6-dihydro-[1,2,4]triazolo[4,3-a]pyrazin-7(8H)-yl)(4-fluorophenyl)methanone], the Ki was below 500 nM.

As to `CC(C)Cc1nc(-c2nnc3n2CCN(C(=O)c2ccc(F)cc2)C3)cs1` [Compound 259, (4-fluorophenyl)(3-(2-isobutylthiazol-4-yl)-5,6-dihydro-[1,2,4]triazolo[4,3-a]pyrazin-7(8H)-yl)methanone], the Ki is 1000 to 5000 nM.

Consider `O=C(c1ccc(F)cc1)N1CCn2c(cnc2-c2csc(-c3ccc(F)cc3)n2)C1` [Compound 260, (4-fluorophenyl)(3-(2-(4-fluorophenyl)thiazol-4-yl)-5,6-dihydroimidazo[1,5-a]pyrazin-7(8H)-yl)methanone], for which the Ki is below 500 nM.

Take `CC1CN(c2nc(-c3nnc4n3CCN(C(=O)c3ccc(-c5cccs5)cc3)C4)cs2)C(C)CO1` (centres unmarked) [Compound 261, (3-(2-(2,5-dimethylmorpholino)thiazol-4-yl)-5,6-dihydro-[1,2,4]triazolo[4,3-a]pyrazin-7(8H)-yl)(4-(thiophen-2-yl)phenyl)methanone]: the Ki was below 500 nM.

In the case of `O=C(c1ccc(-c2cccs2)cc1)N1CCn2c(nnc2-c2csc(-c3ccccc3O)n2)C1` [Compound 262, (3-(2-(2-hydroxyphenyl)thiazol-4-yl)-5,6-dihydro-[1,2,4]triazolo[4,3-a]pyrazin-7(8H)-yl)(4-(thiophen-2-yl)phenyl)methanone], the Ki is below 500 nM.

`O=C(c1ccc(-c2cccs2)cc1)N1CCn2c(nnc2-c2csc(N3CCC(F)(F)CC3)n2)C1` [Compound 263, (3-(2-(4,4-difluoropiperidin-1-yl)thiazol-4-yl)-5,6-dihydro-[1,2,4]triazolo[4,3-a]pyrazin-7(8H)-yl)(4-(thiophen-2-yl)phenyl)methanone]: the Ki is below 500 nM.

For `CC1CN(c2nc(-c3nnc4n3CCN(C(=O)c3ccc(-c5cccs5)cc3)C4)cs2)CC(C)O1` (centres unmarked) [Compound 265, (3-(2-(2,6-dimethylmorpholino)thiazol-4-yl)-5,6-dihydro-[1,2,4]triazolo[4,3-a]pyrazin-7(8H)-yl)(4-(thiophen-2-yl)phenyl)methanone], the Ki was below 500 nM.

As to `CC1(C)CN(c2nc(-c3nnc4n3CCN(C(=O)c3ccc(-c5cccs5)cc3)C4)cs2)CCO1` [Compound 266, (3-(2-(2,2-dimethylmorpholino)thiazol-4-yl)-5,6-dihydro-[1,2,4]triazolo[4,3-a]pyrazin-7(8H)-yl)(4-(thiophen-2-yl)phenyl)methanone], the inhibition constant Ki is below 500 nM.

With `O=C(c1ccc(-c2cccs2)cc1)N1CCn2c(nnc2-c2cc(-c3ccccc3)n[nH]2)C1` [Compound 267, (3-(3-phenyl-1H-pyrazol-5-yl)-5,6-dihydro-[1,2,4]triazolo[4,3-a]pyrazin-7(8H)-yl)(4-(thiophen-2-yl)phenyl)methanone], the inhibition constant Ki is below 500 nM.

Turning to `Cc1ccsc1-c1ccc(C(=O)N2CCn3c(-c4csc(-c5ccc(F)cc5)n4)nnc3C2C)cc1` (centres unmarked) [Compound 268, (3-(2-(4-fluorophenyl)thiazol-4-yl)-8-methyl-5,6-dihydro-[1,2,4]triazolo[4,3-a]pyrazin-7(8H)-yl)(4-(3-methylthiophen-2-yl)phenyl)methanone], the Ki is below 500 nM.

For the compound `O=C(c1ccc(F)cc1)N1CCn2c(nnc2-c2cc(-c3ccccc3)n[nH]2)C1` [Compound 269, (4-fluorophenyl)(3-(3-phenyl-1H-pyrazol-5-yl)-5,6-dihydro-[1,2,4]triazolo[4,3-a]pyrazin-7(8H)-yl)methanone], the Ki was in the range of 500 to 1000 nM.

As to `O=C(c1ccc(F)cc1)N1CCn2c(nnc2-c2csc(-c3ccccc3O)n2)C1` [Compound 271, (4-fluorophenyl)(3-(2-(2-hydroxyphenyl)thiazol-4-yl)-5,6-dihydro-[1,2,4]triazolo[4,3-a]pyrazin-7(8H)-yl)methanone], the Ki was below 500 nM.

Turning to `CC1CN(c2nc(-c3nnc4n3CCN(C(=O)c3ccc(-c5cccs5)cc3)C4)cs2)CCO1` (centres unmarked) [Compound 273, (3-(2-(2-methylmorpholino)thiazol-4-yl)-5,6-dihydro-[1,2,4]triazolo[4,3-a]pyrazin-7(8H)-yl)(4-(thiophen-2-yl)phenyl)methanone], the Ki was below 500 nM.

Take `CC1(C)CCN(c2nc(-c3nnc4n3CCN(C(=O)c3ccc(-c5cccs5)cc3)C4)cs2)CC1` [Compound 274, (3-(2-(4,4-dimethylpiperidin-1-yl)thiazol-4-yl)-5,6-dihydro-[1,2,4]triazolo[4,3-a]pyrazin-7(8H)-yl)(4-(thiophen-2-yl)phenyl)methanone]: the Ki lay within 500 to 1000 nM.

Turning to `Cc1scnc1-c1nnc2n1CCN(C(=O)c1ccc(-c3cccs3)cc1)C2` [Compound 275, (3-(5-methylthiazol-4-yl)-5,6-dihydro-[1,2,4]triazolo[4,3-a]pyrazin-7(8H)-yl)(4-(thiophen-2-yl)phenyl)methanone], the inhibition constant Ki is above 5000 nM.

Consider `CC1(C)CCN(c2nc(-c3nnc4n3CCN(C(=O)c3ccc(F)cc3)C4)cs2)CC1` [Compound 276, (3-(2-(4,4-dimethylpiperidin-1-yl)thiazol-4-yl)-5,6-dihydro-[1,2,4]triazolo[4,3-a]pyrazin-7(8H)-yl)(4-fluorophenyl)methanone], for which the inhibitory constant (Ki) was above 5000 nM.

As to `COCC1CCCCN1c1nc(-c2nnc3n2CCN(C(=O)c2ccc(F)cc2)C3)cs1` (centres unmarked) [Compound 277, (4-fluorophenyl)(3-(2-(2-(methoxymethyl)piperidin-1-yl)thiazol-4-yl)-5,6-dihydro-[1,2,4]triazolo[4,3-a]pyrazin-7(8H)-yl)methanone], the Ki was above 5000 nM.

For the compound `Cc1cccc(-c2nnc3n2CCN(C(=O)c2ccc(F)cc2)C3C)n1` (centres unmarked) [Compound 278, (4-fluorophenyl)(8-methyl-3-(6-methylpyridin-2-yl)-5,6-dihydro-[1,2,4]triazolo[4,3-a]pyrazin-7(8H)-yl)methanone], the Ki was below 500 nM.

On to `COCC1CCCCN1c1nc(-c2nnc3n2CCN(C(=O)c2ccc(-c4cccs4)cc2)C3)cs1` (centres unmarked) [Compound 279, (3-(2-(2-(methoxymethyl)piperidin-1-yl)thiazol-4-yl)-5,6-dihydro-[1,2,4]triazolo[4,3-a]pyrazin-7(8H)-yl)(4-(thiophen-2-yl)phenyl)methanone], for which the inhibition constant Ki was below 500 nM.

`CC(C)(C)OC(=O)NCCOc1ccccc1-c1nc(-c2nnc3n2CCN(C(=O)c2ccc(-c4cccs4)cc2)C3)cs1` [Compound 280, tert-butyl(2-(2-(4-(7-(4-(thiophen-2-yl)benzoyl)-5,6,7,8-tetrahydro-[1,2,4]triazolo[4,3-a]pyrazin-3-yl)thiazol-2-yl)phenoxy)ethyl)carbamate]: the inhibition constant (Ki) was below 500 nM.

For the compound `O=C(c1ccc(-c2cccs2)cc1)N1CCn2c(nnc2-c2csc(-c3ccccc3OCCO)n2)C1` [Compound 281, (3-(2-(2-(2-hydroxyethoxy)phenyl)thiazol-4-yl)-5,6-dihydro-[1,2,4]triazolo[4,3-a]pyrazin-7(8H)-yl)(4-(thiophen-2-yl)phenyl)methanone], the Ki was below 500 nM.

In the case of `NCCOc1ccccc1-c1nc(-c2nnc3n2CCN(C(=O)c2ccc(-c4cccs4)cc2)C3)cs1` [Compound 282, (3-(2-(2-(2-aminoethoxy)phenyl)thiazol-4-yl)-5,6-dihydro-[1,2,4]triazolo[4,3-a]pyrazin-7(8H)-yl)(4-(thiophen-2-yl)phenyl)methanone], the inhibitory constant (Ki) was 500 to 1000 nM.

For the compound `CS(=O)(=O)Nc1ccc(-c2nc(-c3nnc4n3CCN(C(=O)c3ccc(-c5cccs5)cc3)C4)cs2)cc1` [Compound 283, N-(4-(4-(7-(4-(thiophen-2-yl)benzoyl)-5,6,7,8-tetrahydro-[1,2,4]triazolo[4,3-a]pyrazin-3-yl)thiazol-2-yl)phenyl)methanesulfonamide], the Ki is 500 to 1000 nM.

With `O=C(c1ccc(-c2cccs2)cc1)N1CCn2c(nnc2-c2cc(-c3ccccc3)nn2CCO)C1` [Compound 284, (3-(1-(2-hydroxyethyl)-3-phenyl-1H-pyrazol-5-yl)-5,6-dihydro-[1,2,4]triazolo[4,3-a]pyrazin-7(8H)-yl)(4-(thiophen-2-yl)phenyl)methanone], the Ki is below 500 nM.

For the compound `O=C(c1ccc(-c2cccs2)cc1)N1CCn2c(nnc2-c2cc(-c3ccccc3)n(CCO)n2)C1` [Compound 285, (3-(1-(2-hydroxyethyl)-5-phenyl-1H-pyrazol-3-yl)-5,6-dihydro-[1,2,4]triazolo[4,3-a]pyrazin-7(8H)-yl)(4-(thiophen-2-yl)phenyl)methanone], the Ki was below 500 nM.

`Cc1cccc(-c2nnc3n2CCN(C(=O)c2ccc(-c4ccccc4)cc2)C3C)n1` (centres unmarked) [Compound 286, [1,1′-biphenyl]-4-yl(8-methyl-3-(6-methylpyridin-2-yl)-5,6-dihydro-[1,2,4]triazolo[4,3-a]pyrazin-7(8H)-yl)methanone]: the inhibition constant (Ki) is below 500 nM.

For the compound `Cc1cccc(-c2nnc3n2CCN(C(=O)c2ccc(-c4cccs4)cc2)C3C)n1` (centres unmarked) [Compound 287, (8-methyl-3-(6-methylpyridin-2-yl)-5,6-dihydro-[1,2,4]triazolo[4,3-a]pyrazin-7(8H)-yl)(4-(thiophen-2-yl)phenyl)methanone], the inhibitory constant (Ki) is below 500 nM.

A further experiment concerns circulating levels of luteinizing hormone (LH). The experiment can be described thus: Castrated male rat model, circulating levels of luteinizing hormone (LH). It is filed as in vivo. As to conditions: castrated male SD rats, single intravenous dose (156 and 144: 10 mg/kg; 71: 15 mg/kg; 114: 20 mg/kg), 60 min post dosing (156 also 120 min), vs. baseline.
As for `C[C@@H]1c2nnc(-c3csc(-c4ccc(F)cc4)n3)n2CCN1C(=O)c1ccc(F)cc1` [Compound 71, (R)-(4-fluorophenyl)(3-(2-(4-fluorophenyl)thiazol-4-yl)-8-methyl-5,6-dihydro-[1,2,4]triazolo[4,3-a]pyrazin-7(8H)-yl)methanone], the “effect on LH serum levels” value is “significantly suppressed GnRH-mediated elevation of LH”.

For the origin of these results see US10544150B2, “NK-3 receptor selective antagonist compounds, pharmaceutical composition and methods for use in NK-3 receptors mediated disorders” (Ogeda SA, priority 2010, dated 2020).
